The source made the active and inactive calls. No cut-off for these calls is given here.
How the values were obtained:
D(1A) dopamine receptor [1] = molecular target: T1, D(1A) dopamine receptor (Homo sapiens, UniProt P21728); assay: Displacement of [3H]SCH 23390 from human cloned dopamine D1 receptor expressed in HEK 293 cells; type: cell-based, HEK293
D(2) dopamine receptor [2] = molecular target: T2, D(2) dopamine receptor (Homo sapiens, UniProt P14416); assay: Displacement of [3H]spiperone from human cloned dopamine D2L receptor expressed in CHO cells; type: cell-based
D(3) dopamine receptor = D(3) dopamine receptor (Homo sapiens, UniProt P35462); assay: Binding affinity to human cloned dopamine D3 receptor expressed in CHO cells; type: cell-based
[3] = Binding affinity to human cloned dopamine D4.4 receptor expressed in CHO cells; type: cell-based
D(1B) dopamine receptor [4] = molecular target: T3, D(1B) dopamine receptor (Homo sapiens, UniProt P21918); assay: Binding affinity to human cloned dopamine D5 receptor expressed in HEK 293 cells; type: cell-based, HEK293
D(1A) dopamine receptor [5] = molecular target: T1, D(1A) dopamine receptor; assay: Agonist activity at human dopamine D1 receptor assessed as increase in […] calcium concentration by calcium fluorescence assay; type: functional
D(1B) dopamine receptor [6] = molecular target: T3, D(1B) dopamine receptor; assay: Agonist activity at human dopamine D5 receptor assessed as increase in […] calcium concentration by calcium fluorescence assay; type: functional
D(2) dopamine receptor [7] = molecular target: T2, D(2) dopamine receptor; assay: Agonist activity at human dopamine D2 receptor assessed as increase in […] calcium concentration by calcium fluorescence assay; type: functional
D(2) dopamine receptor [8] = molecular target: T2, D(2) dopamine receptor; assay: Activity at human dopamine D2 receptor assessed as quinpirol-induced suppression of calcium signal by calcium fluorescence assay; type: functional
D(1B) dopamine receptor [9] = molecular target: T3, D(1B) dopamine receptor; assay: Activity at human dopamine D5 receptor assessed as SKF 38393-induced suppression of calcium signal by calcium fluorescence assay; type: functional

T1 sequence (P21728 whole entry): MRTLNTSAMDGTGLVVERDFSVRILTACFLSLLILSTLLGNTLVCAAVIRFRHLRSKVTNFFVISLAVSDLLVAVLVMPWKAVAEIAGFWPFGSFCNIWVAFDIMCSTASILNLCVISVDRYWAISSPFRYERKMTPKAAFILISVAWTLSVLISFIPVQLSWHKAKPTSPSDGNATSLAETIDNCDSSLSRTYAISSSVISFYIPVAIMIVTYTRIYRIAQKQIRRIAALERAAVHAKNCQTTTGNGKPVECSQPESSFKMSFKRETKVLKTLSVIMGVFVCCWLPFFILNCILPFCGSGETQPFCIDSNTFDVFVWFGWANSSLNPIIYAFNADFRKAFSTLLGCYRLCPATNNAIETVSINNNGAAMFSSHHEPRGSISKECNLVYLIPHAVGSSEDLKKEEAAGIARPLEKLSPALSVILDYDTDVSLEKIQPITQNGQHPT
T3 sequence (P21918 whole entry): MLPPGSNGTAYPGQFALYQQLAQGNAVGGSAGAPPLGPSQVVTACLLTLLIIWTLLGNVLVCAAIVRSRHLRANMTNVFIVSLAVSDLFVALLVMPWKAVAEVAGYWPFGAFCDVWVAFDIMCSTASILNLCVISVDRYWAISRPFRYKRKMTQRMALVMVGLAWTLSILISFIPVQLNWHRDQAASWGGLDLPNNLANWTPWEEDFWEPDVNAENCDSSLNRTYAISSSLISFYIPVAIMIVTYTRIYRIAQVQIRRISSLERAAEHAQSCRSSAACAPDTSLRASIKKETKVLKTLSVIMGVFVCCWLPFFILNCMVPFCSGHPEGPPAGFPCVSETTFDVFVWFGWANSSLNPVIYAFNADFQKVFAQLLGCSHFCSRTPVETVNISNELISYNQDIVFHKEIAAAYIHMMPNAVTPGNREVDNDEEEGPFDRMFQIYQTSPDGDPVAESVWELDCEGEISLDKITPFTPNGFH
T2 sequence (P14416 whole entry): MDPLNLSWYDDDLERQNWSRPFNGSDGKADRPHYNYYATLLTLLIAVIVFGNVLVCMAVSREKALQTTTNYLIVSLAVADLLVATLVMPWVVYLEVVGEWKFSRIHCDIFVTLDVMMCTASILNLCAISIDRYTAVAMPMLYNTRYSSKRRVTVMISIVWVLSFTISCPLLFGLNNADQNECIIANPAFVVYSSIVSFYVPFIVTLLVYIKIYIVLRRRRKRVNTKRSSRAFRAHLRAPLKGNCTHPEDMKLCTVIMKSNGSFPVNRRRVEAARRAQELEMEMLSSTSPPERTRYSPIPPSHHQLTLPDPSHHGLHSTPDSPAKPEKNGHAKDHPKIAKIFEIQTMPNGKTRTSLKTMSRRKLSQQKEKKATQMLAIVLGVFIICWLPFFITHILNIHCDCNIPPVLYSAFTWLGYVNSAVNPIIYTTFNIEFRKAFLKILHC
D(3) dopamine receptor, sequence (P35462 whole entry): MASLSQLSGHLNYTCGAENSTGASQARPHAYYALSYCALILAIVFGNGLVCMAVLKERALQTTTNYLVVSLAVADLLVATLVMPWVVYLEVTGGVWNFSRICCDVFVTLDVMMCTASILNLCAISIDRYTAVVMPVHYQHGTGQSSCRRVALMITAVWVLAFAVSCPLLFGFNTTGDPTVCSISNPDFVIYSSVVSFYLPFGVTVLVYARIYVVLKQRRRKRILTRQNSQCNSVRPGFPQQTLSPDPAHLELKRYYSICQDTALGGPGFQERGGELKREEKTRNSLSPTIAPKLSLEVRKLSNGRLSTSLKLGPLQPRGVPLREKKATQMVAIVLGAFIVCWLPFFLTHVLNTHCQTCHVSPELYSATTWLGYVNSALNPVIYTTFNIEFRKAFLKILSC

Ki (D(1A) dopamine receptor [1]) [µM]	Ki (D(2) dopamine receptor [2]) [µM]	Ki (D(3) dopamine receptor) [µM]	Ki (D(1B) dopamine receptor [4]) [µM]	Activity (D(1A) dopamine receptor [5])	Activity (D(1B) dopamine receptor [6])	Activity (D(2) dopamine receptor [7])	Activity (D(2) dopamine receptor [8])	Activity (D(1B) dopamine receptor [9])	Structure (SMILES)	Ki [3] [µM]
0.0037	0.0747	2.07	0.0054						CN1CCc2cc(O)ccc2Cc2[nH]c3ccccc3c2CC1	1.36
0.00056	0.0384	0.944	0.00039						CN1CCc2ccccc2Cc2[nH]c3ccc(O)cc3c2CC1	0.398
				inactive	inactive				CN1CCc2ccccc2Cc2ccc(O)cc2CC1	
0.00082	0.0119	0.475	0.0036						COc1ccc2[nH]c3c(c2c1)CCN(C)CCc1ccccc1C3	0.266
		0.0403		inactive	inactive	inactive	Active	Active	CN1CCc2ccccc2Cc2[nH]c3ccccc3c2CC1	0.109
			0.0383						COc1ccc2c(c1)CCN(C)CCc1ccccc1C2	0.0434
0.019	0.0228	1.14	0.0315						COc1ccc2c(c1)CCN(C)CCc1c([nH]c3ccccc13)C2	0.0926

Structure (SMILES)	Ki (D(1A) dopamine receptor [1]) [µM]	Ki (D(2) dopamine receptor [2]) [µM]	Ki (D(3) dopamine receptor) [µM]	Ki (D(1B) dopamine receptor [4]) [µM]	Activity (D(1A) dopamine receptor [5])	Activity (D(1B) dopamine receptor [6])	Activity (D(2) dopamine receptor [7])	Activity (D(2) dopamine receptor [8])	Activity (D(1B) dopamine receptor [9])	Ki [3] [µM]
COc1ccc2c(c1)c1c(n2C)Cc2ccccc2CCN(C)CC1	0.002	0.0017	0.00378	0.00023						0.0215

— ChEMBL document CHEMBL1139077, “Dopamine/serotonin receptor ligands. Part 15: Oxygenation of the benz-indolo-azecine LE 300 leads to novel subnanomolar dopamine D1/D5 antagonists” (Bioorg Med Chem Lett, 2007)
